# Laboratory results from US12037344B2, “NLRP3 modulators” (INNATE TUMOR IMMUNITY, INC., priority 2018, dated 2024).
# Read-outs that look alike come from different tables or passages of the source.
# What was measured:
# [1] = target: T1, TLR8 (Homo sapiens, UniProt Q9NR97); test: In vitro human TLR8 binding reporter assay (HEK-Blue, NF-kB/AP1-inducible SEAP); assay type: cell-based; settings: activity range, read-out: TLR8 Agonist EC50
# T1 construct: human HEK-Blue cells co-expressing a TLR7 or TLR8 gene
# T1 sequence (Q9NR97 27-1041): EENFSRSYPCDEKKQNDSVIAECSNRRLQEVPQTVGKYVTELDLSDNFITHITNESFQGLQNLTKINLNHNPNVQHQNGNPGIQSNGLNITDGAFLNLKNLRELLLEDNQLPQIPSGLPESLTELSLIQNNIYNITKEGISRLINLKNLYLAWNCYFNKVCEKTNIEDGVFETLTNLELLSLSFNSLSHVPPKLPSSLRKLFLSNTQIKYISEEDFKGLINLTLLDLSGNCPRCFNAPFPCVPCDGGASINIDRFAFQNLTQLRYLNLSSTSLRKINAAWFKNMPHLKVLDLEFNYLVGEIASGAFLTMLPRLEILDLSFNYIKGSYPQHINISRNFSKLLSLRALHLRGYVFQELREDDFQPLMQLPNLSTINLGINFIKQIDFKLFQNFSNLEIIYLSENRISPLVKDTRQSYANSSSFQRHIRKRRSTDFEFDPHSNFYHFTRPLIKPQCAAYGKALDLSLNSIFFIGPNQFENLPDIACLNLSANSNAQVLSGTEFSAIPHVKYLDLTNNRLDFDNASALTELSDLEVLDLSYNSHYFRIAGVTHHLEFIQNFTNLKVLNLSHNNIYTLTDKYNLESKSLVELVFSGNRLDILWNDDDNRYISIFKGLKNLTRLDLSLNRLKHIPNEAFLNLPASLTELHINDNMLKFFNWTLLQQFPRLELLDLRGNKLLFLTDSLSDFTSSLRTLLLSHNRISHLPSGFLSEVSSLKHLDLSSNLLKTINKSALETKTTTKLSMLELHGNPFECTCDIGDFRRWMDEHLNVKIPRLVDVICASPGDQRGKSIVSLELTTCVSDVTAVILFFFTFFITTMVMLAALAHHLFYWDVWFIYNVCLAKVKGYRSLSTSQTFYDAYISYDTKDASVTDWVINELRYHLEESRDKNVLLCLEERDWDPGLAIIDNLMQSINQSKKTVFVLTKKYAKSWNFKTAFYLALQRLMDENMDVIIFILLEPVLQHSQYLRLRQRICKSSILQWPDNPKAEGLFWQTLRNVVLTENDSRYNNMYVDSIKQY
# Summary of the method: (§1)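 HEK-Blue cells expressing human TLR7 or TLR8 with NF-kB/AP1-inducible SEAP reporter, plated 24 h, then compound-treated 18 h at 37° C, 5% CO2. EC50 normalized to 100% Ymax set by 50 μM reference standard.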
# [2] = target: T2, TLR7 (Homo sapiens, UniProt Q9NYK1); test: In vitro human TLR7 binding reporter assay (HEK-Blue, NF-kB/AP1-inducible SEAP); assay type: cell-based; settings: activity range, read-out: TLR7 Agonist EC50
# T2 construct: human HEK-Blue cells co-expressing a TLR7 or TLR8 gene
# T2 sequence (Q9NYK1 27-1049): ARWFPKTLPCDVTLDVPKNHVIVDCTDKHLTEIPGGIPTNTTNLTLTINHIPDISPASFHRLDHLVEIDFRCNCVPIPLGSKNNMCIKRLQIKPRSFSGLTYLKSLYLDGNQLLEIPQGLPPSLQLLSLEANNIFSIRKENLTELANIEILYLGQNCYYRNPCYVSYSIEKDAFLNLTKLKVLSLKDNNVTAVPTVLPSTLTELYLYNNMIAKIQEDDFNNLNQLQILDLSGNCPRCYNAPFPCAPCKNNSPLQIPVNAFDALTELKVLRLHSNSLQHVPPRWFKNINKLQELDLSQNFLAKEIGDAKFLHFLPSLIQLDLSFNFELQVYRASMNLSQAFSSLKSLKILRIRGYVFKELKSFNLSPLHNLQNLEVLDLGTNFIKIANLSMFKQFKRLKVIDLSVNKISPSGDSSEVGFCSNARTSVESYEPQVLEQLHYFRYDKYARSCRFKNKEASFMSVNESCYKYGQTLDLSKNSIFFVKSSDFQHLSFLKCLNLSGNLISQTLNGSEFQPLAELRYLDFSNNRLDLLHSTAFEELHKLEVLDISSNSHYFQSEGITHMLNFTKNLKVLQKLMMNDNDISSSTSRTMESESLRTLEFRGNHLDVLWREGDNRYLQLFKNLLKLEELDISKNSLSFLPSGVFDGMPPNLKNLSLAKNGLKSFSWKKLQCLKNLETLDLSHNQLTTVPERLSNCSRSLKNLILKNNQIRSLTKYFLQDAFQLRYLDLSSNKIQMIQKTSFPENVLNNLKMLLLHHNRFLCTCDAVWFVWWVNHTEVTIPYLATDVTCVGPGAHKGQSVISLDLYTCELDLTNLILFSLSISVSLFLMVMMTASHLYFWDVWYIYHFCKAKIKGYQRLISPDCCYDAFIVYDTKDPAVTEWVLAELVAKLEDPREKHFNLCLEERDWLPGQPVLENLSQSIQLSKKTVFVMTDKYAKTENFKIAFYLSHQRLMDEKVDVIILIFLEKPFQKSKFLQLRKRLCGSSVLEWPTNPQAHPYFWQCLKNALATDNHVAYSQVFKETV
# Summary of the method: as §1
# [3] = test system: THP-1 cells; test: Measurement of IL-1β production, hTRF protocol (second alternative procedure), THP-1 cells; assay type: cell-based, human; settings: human cells, read-out: NLRP3 hILIB EC50
# Summary of the method: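 THP-1 cells differentiated overnight with 50 ng/ml PMA, then plated at 50,000 cells/well in RPMI with 2% FBS onto serial compound dilutions (top final concentration 10 μM) for 2 hours at 37° C. Supernatant IL-1β measured by hTRF (antibodies at 1:40, overnight at 4° C), read at 665/615 nm against a standard curve.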
# [4] = Homo sapiens, THP-1, IL-1β production
SMILES,EC50 [1],EC50 [2],"EC50 [3, 4]",EC50 ([3]; IL-1β production)
CC(C)(C(=O)NCC(F)F)n1cc2c(N)nc3cc(-c4cc[nH]n4)ccc3c2n1 [Example 514],> 100 µM,> 100 µM,1.81 µM,
Nc1nc2cc(-c3cc[nH]n3)ccc2c2nn(CCC(=O)NCC(F)F)cc12 [Example 515],> 100 µM,> 100 µM,4.09 µM,
CCNC(=O)CCn1cc2c(N)nc3cc(-c4cc[nH]n4)ccc3c2n1 [Example 517],> 100 µM,> 100 µM,1.72 µM,
Cn1cnc(C(=O)NCCc2cc3c(N)nc4cc(-c5cc[nH]n5)ccc4c3[nH]2)c1 [Example 518],> 100 µM,> 100 µM,0.53 µM,
Nc1nc2cc(-c3cc[nH]n3)ccc2c2[nH]c(CCNC(=O)c3cccc(O)n3)cc12 [Example 519],> 100 µM,> 100 µM,2.07 µM,
Nc1nc2cc(-c3cc[nH]n3)ccc2c2[nH]c(CNCC(F)F)cc12 [Example 520],> 100 µM,> 100 µM,0.09 µM,
CC(C)(C(=O)NCCO)n1cc2c(N)nc3cc(-c4cc[nH]n4)ccc3c2n1 [Example 521],> 100 µM,> 100 µM,5.67 µM,
CC(C)(CO)NC(=O)C(C)(C)n1cc2c(N)nc3cc(-c4cc[nH]n4)ccc3c2n1 [Example 522],> 100 µM,> 100 µM,12.2 µM,
CC(C)(C(=O)N1CC(F)(F)C1)n1cc2c(N)nc3cc(-c4cc[nH]n4)ccc3c2n1 [Example 523],> 100 µM,> 100 µM,7.3 µM,
CC(C)(C(=O)NC1CCC1)n1cc2c(N)nc3cc(-c4cc[nH]n4)ccc3c2n1 [Example 524],> 100 µM,> 100 µM,2.03 µM,
CC(C)(C(=O)NCc1ccccn1)n1cc2c(N)nc3cc(-c4cc[nH]n4)ccc3c2n1 [Example 525],> 100 µM,> 100 µM,20.2 µM,
CCS(=O)(=O)CCn1cc2c(n1)c(N)nc1cc(-c3cc[nH]n3)ccc12 [Example 526],> 100 µM,> 100 µM,0.7 µM,
C[C@H](Cn1cc2c(n1)c(N)nc1cc(-c3cc[nH]n3)ccc12)NS(C)(=O)=O [Example 530],> 100 µM,> 100 µM,0.68 µM,
C[C@@H](Cn1cc2c(n1)c(N)nc1cc(-c3cc[nH]n3)ccc12)NS(C)(=O)=O [Example 531],> 100 µM,> 100 µM,1.68 µM,
NC(=O)Cn1cc2c(n1)c(N)nc1cc(-c3ccn[nH]3)ccc12 [Example 541],> 100 µM,> 100 µM,0.65 µM,
COCCN(C)C(=O)Cn1cc2c(n1)c(N)nc1cc(-c3cc[nH]n3)ccc12 [Example 542],> 100 µM,> 100 µM,1.58 µM,

# More lines, now with the values ahead:
EC50 [1],EC50 [2],"EC50 [3, 4]",EC50 ([3]; IL-1β production),SMILES
> 100 µM,> 100 µM,9.67 µM,,N#C[C@H]1CCN(C(=O)CCn2cc3c(N)nc4cc(-c5cc[nH]n5)ccc4c3n2)C1 [Example 516]
> 100 µM,> 100 µM,0.4 µM,,NC(=O)C1(Cn2cc3c(n2)c(N)nc2cc(-c4cc[nH]n4)ccc23)CC1 [Example 527]
> 100 µM,> 100 µM,0.51 µM,,Nc1nc2cc(-c3cc[nH]n3)ccc2c2cn(CC(=O)N3CCCC3)nc12 [Example 528]
> 100 µM,> 100 µM,0.87 µM,,CCNC(=O)Cn1cc2c(n1)c(N)nc1cc(-c3cc[nH]n3)ccc12 [Example 529]
> 100 µM,> 100 µM,0.34 µM,,Nc1nc2cc(-c3cc[nH]n3)ccc2c2cn(CC(=O)N3CCOCC3)nc12 [Example 532]
> 100 µM,> 100 µM,2.28 µM,,Nc1nc2cc(-c3cc[nH]n3)ccc2c2cn(CC(=O)N[C@@H]3CCOC3)nc12 [Example 533]
> 100 µM,> 100 µM,0.71 µM,,CC(C)NC(=O)Cn1cc2c(n1)c(N)nc1cc(-c3cc[nH]n3)ccc12 [Example 534]
> 100 µM,> 100 µM,0.96 µM,,CNC(=O)CCn1cc2c(n1)c(N)nc1cc(-c3cc[nH]n3)ccc12 [Example 535]
> 100 µM,> 100 µM,3.58 µM,,COCCNC(=O)Cn1cc2c(n1)c(N)nc1cc(-c3cc[nH]n3)ccc12 [Example 536]
> 100 µM,> 100 µM,2.75 µM,,CC(C)(CO)NC(=O)Cn1cc2c(n1)c(N)nc1cc(-c3cc[nH]n3)ccc12 [Example 537]
> 100 µM,> 100 µM,0.6 µM,,Nc1nc2cc(-c3cc[nH]n3)ccc2c2cn(CC(=O)NCC(F)F)nc12 [Example 538]
> 100 µM,> 100 µM,18.5 µM,,CC(Cn1cc2c(n1)c(N)nc1cc(-c3cc[nH]n3)ccc12)C(=O)N1CCOCC1 (stereo not drawn) [Example 539]
> 100 µM,> 100 µM,3.13 µM,,N#C[C@H]1CCN(C(=O)Cn2cc3c(n2)c(N)nc2cc(-c4cc[nH]n4)ccc23)C1 [Example 540]
> 100 µM,> 100 µM,2.03 µM,,Nc1nc2cc(-c3cc[nH]n3)ccc2c2cn(CC(=O)N3CC(F)C3)nc12 [Example 543]
> 100 µM,> 100 µM,,4.36 µM,Nc1nc2cc(-c3cc[nH]n3)ccc2c2cn(CC(=O)N[C@@H]3CCOC3)nc12 [Example 544]
> 100 µM,> 100 µM,1.79 µM,,Nc1nc2cc(-c3cc[nH]n3)ccc2c2cn(CC(=O)N3CC(F)(F)C3)nc12 [Example 545]
> 100 µM,> 100 µM,3.27 µM,,COC1CN(C(=O)Cn2cc3c(n2)c(N)nc2cc(-c4cc[nH]n4)ccc23)C1 [Example 546]
> 100 µM,> 100 µM,5.3 µM,,CN(CCO)C(=O)Cn1cc2c(n1)c(N)nc1cc(-c3cc[nH]n3)ccc12 [Example 547]
> 100 µM,> 100 µM,0.78 µM,,Nc1nc2cc(-c3cc[nH]n3)ccc2c2cn(CC(=O)NC3CCC3)nc12 [Example 548]
> 100 µM,> 100 µM,3.95 µM,,CN(C(=O)Cn1cc2c(n1)c(N)nc1cc(-c3cc[nH]n3)ccc12)[C@H]1CCOC1 [Example 549]
> 100 µM,> 100 µM,5.01 µM,,Nc1nc2cc(-c3cc[nH]n3)ccc2c2cn(CC(=O)NCC3CCOCC3)nc12 [Example 550]
